Measured values from ChEMBL document CHEMBL5505960, “Synthesis and evaluation of butylphthalide-scutellarein hybrids as multifunctional agents for the treatment of Alzheimer's disease” (Eur J Med Chem, 2024).
Active and inactive are the calls of the source. No cut-off for these calls is given here.

Experiments:
[1] = tested on: BV-2; experiment: Antineuroinflammatory activity in LPS-induced mouse BV-2 cells assessed as inhibition of TNF-alpha release at 0.5 uM preincubated for 30 mins followed by LPS stimulation and measured after 24 hrs relative to control; assay type: functional; parameters: scale not given: the % may be the effect or the level left; settings: time 24.5 hrs
[2] = Half life in Balb/C mouse plasma at 30 mg/kg, IG measured upto 8 hrs by LC-MS analysis; assay type: ADME, organism-based; settings: po
[3] = Tmax in Balb/C mouse plasma at 30 mg/kg, IG measured upto 8 hrs by LC-MS analysis; assay type: ADME, organism-based; settings: po
[4] = Metal chelating activity assessed as compound-Zn2+ complex formation by measuring hyperchromic shift in the presence of ZnCl2 by UV-Visible spectrophotometric analysis
[5] = target: Amyloid-beta precursor protein (Homo sapiens) (UniProt P05067); experiment: Inhibition of amyloid beta (1 to 42) (unknown origin) fibrillation assessed as short amyloid beta fibrils at 25 uM measured after 24 hrs by TEM analysis
[6] = Cmax in Balb/C mouse plasma at 30 mg/kg, IG measured upto 8 hrs by LC-MS analysis; assay type: ADME, organism-based; settings: po
[7] = Metal chelating activity assessed as compound-Fe2+ complex formation by measuring bathochromic shift at 301 to 335nm in the presence of FeSO4 by UV-Visible spectrophotometric analysis
[8] = tested on: Mus musculus; experiment: Neuroprotective activity in Sodium nitrite induced cognition impairement in C57BL/6 mouse model assessed as reduction in number of error time at 1.1 to 9.9 mg/kg, IG administered daily for 7 days; assay type: functional, organism-based; settings: dose 1.1-9.9 mg/kg, time 7.0 day
[9] = target: Amyloid-beta precursor protein (Homo sapiens) (UniProt P05067); experiment: Inhibition of amyloid beta (1 to 42) (unknown origin) fibrillation assessed as decrease in thickness of amyloid beta fibrils at 25 uM measured after 24 hrs by TEM analysis
[10] = Metal chelating activity assessed as compound-Cu2+ complex formation by measuring bathochromic shift at 301 to 345nm in the presence of CuCl2 by UV-Visible spectrophotometric analysis
[11] = tested on: BV-2; experiment: Antineuroinflammatory activity in LPS-induced mouse BV-2 cells assessed as inhibition of IL-1 beta release at 10 uM preincubated for 30 mins followed by LPS stimulation and measured after 24 hrs relative to control; assay type: functional; parameters: scale not given: the % may be the effect or the level left; settings: time 24.5 hrs
[12] = tested on: BV-2; experiment: Cytotoxicity against mouse BV-2 cells at upto 10 uM measured after 24 hrs by MTT assay; assay type: toxicity, cell-based; settings: bv-2, 24 h
[13] = Half life in Balb/C mouse brain at 30 mg/kg, IG measured upto 8 hrs by LC-MS analysis; assay type: ADME, organism-based; settings: po
[14] = Cmax in Balb/C mouse brain at 30 mg/kg, IG measured upto 8 hrs by LC-MS analysis; assay type: ADME, organism-based; settings: po
[15] = tested on: Mus musculus; experiment: Neuroprotective activity in C57BL/6 mouse assessed as amelioration of sodium nitrite induced memory impairement at 1.1 to 9.9 mg/kg, IG administered daily for 7 days; assay type: functional, organism-based; settings: dose 1.1-9.9 mg/kg, time 7.0 day
[16] = tested on: HT-22; experiment: Neuroprotective activity against amyloid beta (1 to 42)-induced cell injury in mouse HT-22 cells assessed as reversal of reduction in cell numbers at 2.5 to 10 uM measured after 24 hrs by MTT assay; assay type: functional, cell-based; settings: dose 2.5-10 µM
[17] = Metal chelating activity assessed as compound-Zn2+ complex formation by measuring bathochromic shift at 301 to 345nm in the presence of ZnCl2 by UV-Visible spectrophotometric analysis
[18] = Metal chelating activity assessed as compound-Al3+ complex formation by measuring hyperchromic shift in the presence of AlCl3 by UV-Visible spectrophotometric analysis
[19] = tested on: BV-2; experiment: Antineuroinflammatory activity in LPS-induced mouse BV-2 cells assessed as inhibition of IL-1 beta release at 2.5 uM preincubated for 30 mins followed by LPS stimulation and measured after 24 hrs relative to control; assay type: functional; parameters: scale not given: the % may be the effect or the level left; settings: time 24.5 hrs
[20] = AUC (0 to t) in Balb/C mouse plasma at 30 mg/kg, IG measured upto 8 hrs by LC-MS analysis; assay type: ADME, organism-based; settings: po
[21] = target: Amyloid-beta precursor protein (Homo sapiens) (UniProt P05067); experiment: Inhibition of amyloid beta (1 to 42) (unknown origin) self induced aggregation at 25 uM by ThT fluorescence assay relative to control
[22] = tested on: PC-12; experiment: Neuroprotective activity against H2O2 induced rat PC12 cells assessed as increase in cell viability at 10 uM measured after 24 hrs by MTT assay relative to control; assay type: functional
[23] = target: Amyloid-beta precursor protein (Homo sapiens) (UniProt P05067); experiment: Inhibition of amyloid beta (1 to 42) (unknown origin) fibrillation assessed as reversal of A-beta 1-42 induced morphological changes at 25 uM measured after 24 hrs by TEM analysis
[24] = tested on: HT-22; experiment: Neuroprotective activity against amyloid beta (1 to 42) induced cell injury in mouse HT-22 cells assessed as cell viability at 50 uM incubated for 24 hrs by MTT assay; assay type: functional, cell-based
[25] = tested on: PC-12; experiment: Neuroprotective activity against H2O2 induced rat PC12 cells assessed as increase in cell viability at 25 uM measured after 24 hrs by MTT assay relative to control; assay type: functional
[26] = tested on: Mus musculus; experiment: Neuroprotective activity against Abeta42 induced cognition impairement in AD mouse model assessed as reduction in number of error at 1.1 to 9.9 mg/kg, IG administered daily for 7 days by passive avoidance test; assay type: functional, organism-based; settings: dose 1.1-9.9 mg/kg, time 7.0 day
[27] = tested on: Mus musculus; experiment: Neuroprotective activity in Sodium nitrite induced cognition impairement in C57BL/6 mouse model assessed as decrease in MAD activity at 5.0 mg/kg, IG administered daily for 7 days; assay type: functional, organism-based; settings: time 7.0 day
[28] = tested on: BV-2; experiment: Antineuroinflammatory activity in LPS-induced mouse BV-2 cells assessed as inhibition of NO release at 2.5 uM preincubated for 30 mins followed by LPS stimulation and measured after 24 hrs relative to control; assay type: functional; parameters: scale not given: the % may be the effect or the level left; settings: time 24.5 hrs
[29] = Metal chelating activity assessed as compound-Cu2+ complex formation at stoichiometric ratio of 1:1 in presence of CuCl2 by UV-Vis spectrometry
[30] = Antioxidant activity assessed as inhibition of Cu2+-induced ROS production by measuring decrease in fluorescence intensity in presence of Cu2+ and ascorbate; assay type: functional
[31] = Tmax in Balb/C mouse brain at 30 mg/kg, IG measured upto 8 hrs by LC-MS analysis; assay type: ADME, organism-based; settings: po

Chain of Amyloid-beta precursor protein (Homo sapiens) (P05067 whole entry): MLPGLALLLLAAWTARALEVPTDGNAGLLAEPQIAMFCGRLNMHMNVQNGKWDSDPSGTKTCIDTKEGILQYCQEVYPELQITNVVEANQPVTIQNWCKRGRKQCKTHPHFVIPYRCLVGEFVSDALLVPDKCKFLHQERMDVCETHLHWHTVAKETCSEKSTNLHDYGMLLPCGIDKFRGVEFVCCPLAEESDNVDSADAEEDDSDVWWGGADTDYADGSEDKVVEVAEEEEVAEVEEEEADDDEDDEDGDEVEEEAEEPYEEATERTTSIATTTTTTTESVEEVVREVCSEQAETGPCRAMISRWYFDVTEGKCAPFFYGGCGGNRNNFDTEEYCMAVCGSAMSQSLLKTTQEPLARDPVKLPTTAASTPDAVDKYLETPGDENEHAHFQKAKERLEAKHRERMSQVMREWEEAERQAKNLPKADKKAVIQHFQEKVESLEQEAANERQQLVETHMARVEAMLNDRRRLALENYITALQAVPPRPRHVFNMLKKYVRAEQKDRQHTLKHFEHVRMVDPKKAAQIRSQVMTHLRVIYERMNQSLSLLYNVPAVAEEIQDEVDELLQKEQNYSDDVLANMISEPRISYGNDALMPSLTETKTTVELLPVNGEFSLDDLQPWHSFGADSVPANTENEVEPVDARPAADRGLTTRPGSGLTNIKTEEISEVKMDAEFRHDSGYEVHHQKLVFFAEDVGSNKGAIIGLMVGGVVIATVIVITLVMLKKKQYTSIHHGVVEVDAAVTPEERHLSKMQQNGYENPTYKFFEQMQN

half-life [2]: 51 min
Tmax [3]: 15 min
Activity [4]: Active
inhibition [5]: Active
Cmax [6]: 879 ng/mL
Activity [7]: Active
inhibition [9]: Active
Activity [10]: Active
half-life [13]: 58.2 min
Cmax [14]: 337 ng/mL
Activity [17]: Active
Activity [18]: Active
AUC(0-t) at 8 h [20]: 852 ng·h/mL
inhibition [21]: 90.2%
inhibition [23]: Active
Activity [29]: Active
Tmax [31]: 30 min
Structure (SMILES): CCCCCC1OC(=O)c2c1cc(OC)c(O)c2O (stereo unspecified)
Activity [1]: 20%
Activity [8]: Active
Activity [11]: 62.9%
Activity [12]: Non-Toxic
Activity [15]: Active
Activity [16]: Active
Activity [19]: 49.2%
Activity [22]: 80.7%
Activity [24]: Active
Activity [25]: 83.9%
Activity [26]: Active
Activity [27]: inactive
Activity [28]: 47%
Activity [30]: Active
